Reference: patent US20230102554A1 (GB002, INC., priority 2019, published 2023)

Tests used:
[1] = target: T1, Human PDGFRα, cytoplasmic domain (GST-PDGFRα) (Homo sapiens, UniProt P16234); assay: Human PDGFRα biochemical inhibition assay (off-chip Mobility Shift Assay)
T1 construct: made in house

[2] = target: T2, Human PDGFRβ, cytoplasmic domain (GST-PDGFRβ) (Homo sapiens, UniProt P09619); assay: Human PDGFRβ biochemical inhibition assay (off-chip Mobility Shift Assay)
T2 construct: made in house
T2 sequence (P09619 with tags, fused parts or gaps): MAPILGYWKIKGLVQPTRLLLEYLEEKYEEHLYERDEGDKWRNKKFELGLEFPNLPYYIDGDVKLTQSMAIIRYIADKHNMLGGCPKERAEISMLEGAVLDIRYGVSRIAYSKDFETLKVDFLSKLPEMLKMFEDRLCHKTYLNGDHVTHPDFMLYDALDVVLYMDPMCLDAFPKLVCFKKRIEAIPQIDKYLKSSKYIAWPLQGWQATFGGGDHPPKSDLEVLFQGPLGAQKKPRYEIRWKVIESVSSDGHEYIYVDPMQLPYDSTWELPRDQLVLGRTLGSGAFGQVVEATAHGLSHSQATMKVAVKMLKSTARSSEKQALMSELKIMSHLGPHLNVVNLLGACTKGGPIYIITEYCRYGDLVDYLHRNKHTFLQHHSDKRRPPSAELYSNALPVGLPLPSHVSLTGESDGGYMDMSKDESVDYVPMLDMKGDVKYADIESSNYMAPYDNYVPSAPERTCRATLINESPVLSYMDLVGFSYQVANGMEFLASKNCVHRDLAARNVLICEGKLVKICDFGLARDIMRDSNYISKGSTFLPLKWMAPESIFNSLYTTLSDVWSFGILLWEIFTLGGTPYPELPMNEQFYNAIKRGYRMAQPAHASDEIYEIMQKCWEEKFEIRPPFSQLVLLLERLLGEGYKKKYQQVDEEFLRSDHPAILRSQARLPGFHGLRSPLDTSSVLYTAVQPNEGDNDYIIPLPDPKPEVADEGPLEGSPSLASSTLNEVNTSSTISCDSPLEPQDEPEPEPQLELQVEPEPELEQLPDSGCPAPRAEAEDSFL
Method in brief: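 GST-tagged cytoplasmic domain (aa 557-1106) from baculovirus was incubated 1 h at room temperature with compound, CSKtide, ATP at Km and Mg²⁺ in HEPES buffer, pH 7.5. Phosphorylated and unphosphorylated peptide were separated by off-chip mobility shift, and the product ratio P/(P+S) gave percent inhibition.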

T1 sequence (P16234 550-1089 T674I): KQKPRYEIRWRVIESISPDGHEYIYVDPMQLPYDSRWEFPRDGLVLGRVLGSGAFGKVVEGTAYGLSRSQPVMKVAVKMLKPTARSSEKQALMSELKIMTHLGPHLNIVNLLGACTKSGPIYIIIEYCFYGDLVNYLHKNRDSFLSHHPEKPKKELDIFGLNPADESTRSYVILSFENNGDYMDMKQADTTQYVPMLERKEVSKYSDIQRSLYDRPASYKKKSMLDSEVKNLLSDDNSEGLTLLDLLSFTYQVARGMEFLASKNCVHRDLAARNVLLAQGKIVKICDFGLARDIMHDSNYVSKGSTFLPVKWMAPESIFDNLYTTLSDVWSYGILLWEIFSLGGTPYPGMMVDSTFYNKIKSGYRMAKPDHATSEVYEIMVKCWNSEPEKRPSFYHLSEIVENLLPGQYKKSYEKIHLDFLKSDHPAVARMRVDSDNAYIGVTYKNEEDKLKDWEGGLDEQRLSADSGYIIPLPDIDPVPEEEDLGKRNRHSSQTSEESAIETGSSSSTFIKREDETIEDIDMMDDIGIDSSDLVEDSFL

| SMILES | IC50 [1] [nM] | IC50 [2] [nM] |
| --- | --- | --- |
| COc1ncc(C(=O)Nc2cccc([C@H](C)Nc3cnc4cnn(C)c4n3)c2)cc1C [Compound 128, (S)-6-methoxy-5-methyl-N-(3-(1-((1-methyl-1H-pyrazolo[3,4-b]pyrazin-6-yl)amino)ethyl)phenyl)nicotinamide] | < 300 | < 300 |
| C[C@H](Nc1cnc2cnn(C)c2n1)c1cccc(NC(=O)c2ccc(Cl)s2)c1 [Compound 135, (S)-5-chloro-N-(3-(1-((1-methyl-1H-pyrazolo[3,4-b]pyrazin-6-yl)amino)ethyl)phenyl)thiophene-2-carboxamide] | < 300 | < 300 |
| Cc1c[nH]c2ncc(N[C@@H](C)c3cccc(NC(=O)c4cnc(C5CC5)s4)c3)nc12 [Compound 571, (S)-2-cyclopropyl-N-(3-(1-((7-methyl-5H-pyrrolo[2,3-b]pyrazin-2-yl)amino)ethyl)phenyl)thiazole-5-carboxamide] | < 300 | < 300 |
| Cc1cncc(C(=O)Nc2cccc([C@H](C)Nc3cnc4cn(-c5ccccc5)nc4n3)c2)c1 [Compound 434, (S)-5-methyl-N-(3-(1-((2-phenyl-2H-pyrazolo[3,4-b]pyrazin-6-yl)amino)ethyl)phenyl)nicotinamide] | < 300 | < 300 |
| Cc1cncc(C(=O)Nc2cccc([C@H](C)Nc3cnc4cc(C)sc4n3)c2)c1 [Compound 19, (S)-5-methyl-N-(3-(1-((6-methylthieno[2,3-b]pyrazin-3-yl)amino)ethyl)phenyl)nicotinamide] | < 300 | < 300 |
| CCn1cc2ncc(N[C@@H](C)c3cccc(NC(=O)Cc4cc(Cl)ccn4)c3)nc2n1 [Compound 676, (S)-2-(4-chloropyridin-2-yl)-N-(3-(1-((2-ethyl-2H-pyrazolo[3,4-b]pyrazin-6-yl)amino)ethyl)phenyl)acetamide] | 300 to 1000 | ≥ 1000 |
| CCn1cc2ncc(N[C@@H](C)c3cc(NC(=O)c4ccc(CN5CCN(C)CC5)c(Cl)c4)ccc3F)nc2n1 [Compound 429, (S)-3-chloro-N-(3-(1-((2-ethyl-2H-pyrazolo[3,4-b]pyrazin-6-yl)amino)ethyl)-4-fluorophenyl)-4-((4-methylpiperazin-1-yl)methyl)benzamide] | < 300 | < 300 |
| Cc1c[nH]c2ncc(N[C@@H](C)c3cccc(NC(=O)c4cc(C(F)(F)F)n(C)n4)c3)nc12 [Compound 567, (S)-1-methyl-N-(3-(1-((7-methyl-5H-pyrrolo[2,3-b]pyrazin-2-yl)amino)ethyl)phenyl)-5-(trifluoromethyl)-1H-pyrazole-3-carboxamide] | < 300 | 300 to 1000 |
| CCn1cc2ncc(N[C@@H](C)c3cccc(NC(=O)c4ccc(OC(F)(F)F)c(Cl)c4)c3)nc2n1 [Compound 437, (S)-3-chloro-N-(3-(1-((2-ethyl-2H-pyrazolo[3,4-b]pyrazin-6-yl)amino)ethyl)phenyl)-4-(trifluoromethoxy)benzamide] | < 300 | < 300 |
| Cc1cncc(C(=O)Nc2cccc([C@H](C)Nc3cnc4cc(F)c(F)cc4c3)c2)c1 [Compound 30, (S)-N-(3-(1-((6,7-difluoroquinolin-3-yl)amino)ethyl)phenyl)-5-methylnicotinamide] | < 300 | 300 to 1000 |
| Cc1cncc(C(=O)Nc2cccc([C@H](C)Nc3cnc4cnn(C5CC5)c4n3)c2)c1 [Compound 177, (S)-N-(3-(1-((1-cyclopropyl-1H-pyrazolo[3,4-b]pyrazin-6-yl)amino)ethyl)phenyl)-5-methylnicotinamide] | < 300 | < 300 |
| Cc1cncc(C(=O)Nc2cccc([C@H](C)Nc3cnc4ccn(CCN5CCOCC5)c4n3)c2)c1 [Compound 85, (S)-5-methyl-N-(3-(1-((5-(2-morpholinoethyl)-5H-pyrrolo [2,3-b]pyrazin-3-yl)amino)ethyl)phenyl)nicotinamide] | ≥ 1000 | ≥ 1000 |
| Cc1cc(C(=O)Nc2cccc([C@H](C)Nc3cnc4cnn(C)c4n3)c2)cnc1C(F)(F)F [Compound 125, (S)-5-methyl-N-(3-(1-((1-methyl-1H-pyrazolo[3,4-b]pyrazin-6-yl)amino)ethyl)phenyl)-6-(trifluoromethyl) nicotinamide] | < 300 | < 300 |
| CCOC(=O)c1ccc(C(=O)Nc2cccc([C@H](C)Nc3cnc4cnn(C)c4n3)c2)cc1C [Compound 255, ethyl (S)-2-methyl-4-((3-(1-((1-methyl-1H-pyrazolo[3,4-b]pyrazin-6-yl)amino)ethyl)phenyl)carbamoyl)benzoate] | < 300 | < 300 |
| CCn1ncc2ncc(N[C@@H](C)c3cccc(NC(=O)c4cncc(C)c4)c3)nc21 [Compound 176, (S)-N-(3-(1-((1-ethyl-1H-pyrazolo[3,4-b]pyrazin-6-yl)amino)ethyl)phenyl)-5-methylnicotinamide] | < 300 | < 300 |
| CCn1cc2ncc(N[C@@H](C)c3cccc(NC(=O)c4cc(Cl)c(Cl)s4)c3)nc2n1 [Compound 357, (S)-4,5-dichloro-N-(3-(1-((2-ethyl-2H-pyrazolo[3,4-b]pyrazin-6-yl)amino)ethyl)phenyl)thiophene-2-carboxamide] | < 300 | < 300 |
| COc1cncc(C(=O)Nc2cccc([C@H](C)Nc3cnc4cnn(C)c4n3)c2)c1 [Compound 104, (S)-5-methoxy-N-(3-(1-((1-methyl-1H-pyrazolo[3,4-b]pyrazin-6-yl)amino)ethyl)phenyl)nicotinamide] | < 300 | < 300 |
| CCc1ccc(NC(=O)c2ccc(C(F)(F)F)nc2)cc1[C@H](C)Nc1cnc2cn(CC)nc2n1 [Compound 516, (S)-N-(4-ethyl-3-(1-((2-ethyl-2H-pyrazolo[3,4-b]pyrazin-6-yl)amino)ethyl)phenyl)-6-(trifluoromethyl)nicotinamide] | ≥ 1000 | ≥ 1000 |
| CCn1cc2ncc(N[C@@H](C)c3cccc(NC(=O)c4ccc(N5CCN(C(=O)OC(C)(C)C)CC5)nc4)c3)nc2n1 [Compound 378, tert-butyl (S)-4-(5-((3-(1-((2-ethyl-2H-pyrazolo[3,4-b]pyrazin-6-yl)amino)ethyl)phenyl)carbamoyl)pyridin-2-yl) piperazine-1-carboxylate] | < 300 | 300 to 1000 |
| CCn1cc2ncc(N[C@@H](C)c3cccc(NC(=O)c4ccc(CN5CCN(C)CC5)nc4)c3)nc2n1 [Compound 387, (S)-N-(3-(1-((2-ethyl-2H-pyrazolo[3,4-b]pyrazin-6-yl)amino)ethyl)phenyl)-6-((4-methylpiperazin-1-yl)methyl) nicotinamide] | < 300 | ≥ 1000 |
| COc1ccc2cc(N[C@@H](C)c3cccc(NC(=O)c4cncc(C)c4)c3)cnc2c1 [Compound 28, (S)-N-(3-(1-((7-methoxyquinolin-3-yl)amino)ethyl)phenyl)-5-methylnicotinamide] | < 300 | < 300 |
| CC(C)COc1ncc(C(=O)Nc2cccc([C@H](C)Nc3cnc4cnn(C)c4n3)c2)cc1Cl [Compound 262, (S)-5-chloro-6-isobutoxy-N-(3-(1-((1-methyl-1H-pyrazolo[3,4-b]pyrazin-6-yl)amino)ethyl)phenyl)nicotinamide] | < 300 | < 300 |
| Cc1cc(C(=O)Nc2cccc([C@H](C)Nc3cnc4cnn(C)c4n3)c2)cnc1CN1CCSCC1 [Compound 244, (S)-5-methyl-N-(3-(1-((1-methyl-1H-pyrazolo[3,4-b]pyrazin-6-yl)amino)ethyl)phenyl)-6-(thiomorpholinomethyl) nicotinamide] | < 300 | < 300 |
| C[C@H](Nc1cnc2cnn(C)c2n1)c1cccc(NC(=O)c2ccc(Cl)c(F)c2)c1 [Compound 191, (S)-4-chloro-3-fluoro-N-(3-(1-((1-methyl-1H-pyrazolo[3,4-b]pyrazin-6-yl)amino)ethyl)phenyl)benzamide] | < 300 | < 300 |
| CCn1cc2ncc(N[C@@H](C)c3cc(NC(=O)Cc4cc(C)ccn4)ccc3C)nc2n1 [Compound 679, (S)-N-(3-(1-((2-ethyl-2H-pyrazolo[3,4-b]pyrazin-6-yl)amino)ethyl)-4-methylphenyl)-2-(4-methylpyridin-2-yl) acetamide] | < 300 | < 300 |
| CCn1cc2ncc(N[C@@H](C)c3cc(NC(=O)Cc4ccc(F)c(C)n4)ccc3C)nc2n1 [Compound 675, (S)-N-(3-(1-((2-ethyl-2H-pyrazolo[3,4-b]pyrazin-6-yl)amino)ethyl)-4-methylphenyl)-2-(5-fluoro-6-methylpyridin-2-yl)acetamide] | < 300 | < 300 |
| CCn1cc2ncc(N[C@@H](C)c3cc(NC(=O)c4cnc(N5CCN(C)CC5)c(C)c4)ccc3F)nc2n1 [Compound 432, (S)-N-(3-(1-((2-ethyl-2H-pyrazolo[3,4-b]pyrazin-6-yl)amino)ethyl)-4-fluorophenyl)-5-methyl-6-(4-methylpiperazin-1-yl)nicotinamide] | < 300 | < 300 |
| CCn1cc2ncc(N[C@@H](C)c3cccc(NC(=O)c4ccc(CN5CCN(C)CC5)c(C(F)(F)F)c4)c3)nc2n1 [Compound 423, (S)-N-(3-(1-((2-ethyl-2H-pyrazolo[3,4-b]pyrazin-6-yl)amino)ethyl)phenyl)-4-((4-methylpiperazin-1-yl)methyl)-3-(trifluoromethyl)benzamide] | < 300 | < 300 |
| CCn1cc2ncc(N[C@@H](C)c3cccc(NC(=O)c4ccc(C(=O)N5CCN(C)CC5)c(C)c4)c3)nc2n1 [Compound 472, (S)-N-(3-(1-((2-ethyl-2H-pyrazolo[3,4-b]pyrazin-6-yl)amino)ethyl)phenyl)-3-methyl-4-(4-methylpiperazine-1-carbonyl)benzamide] | < 300 | 300 to 1000 |
| CCn1cc2ncc(N[C@@H](C)c3cc(NC(=O)c4ccc(C(F)(F)F)nc4)ccc3F)nc2n1 [Compound 10, (S)—N-(3-(1-((2-ethyl-2H-pyrazolo[3,4-b]pyrazin-6-yl)amino)ethyl)-4-fluorophenyl)-6-(trifluoromethyl)nicotinamide] | < 300 | < 300 |
